experiment: Inhibition of LFA1:CD11a/CD18/ICAM1-mediated human HL60 cell adhesion to human HeLa cells expressing ICAM1 by fluorescence analysis

| Structure (SMILES) | IC50 |
| --- | --- |
| C=C1[C@@H](C)[C@H]2[C@H](Cc3ccccc3)NC(=O)[C@]23OC(=O)/C=C/[C@H](O)CCC[C@@H](C)C/C=C/[C@H]3[C@@H]1O [CHEBI:23527] | 11.4 µM |
| CC[C@H]1CN2CCc3cc(OC)c(OC)cc3[C@@H]2C[C@@H]1C[C@H]1NCCc2cc(O)c(OC)cc21 [CHEBI:3533] | > 21.4 µM |
| CC[C@H]1CN2CCc3cc(OC)c(OC)cc3[C@@H]2C[C@@H]1C[C@H]1NCCc2cc(OC)c(OC)cc21 [6',7',10,11-tetramethoxyemetan] | > 104 µM |
